Data published in US5686418A, “Prolonging survival of transplanted pancreatic cells” (Biomeasure Incorporated, priority 1996, dated 1997).
Where two headings read alike, the source gives them in different places. Where a SMILES comes first, the peptide text is derived from it. Bridges are numbered along the chain shown (N, C = ends). [ ]: non-standard residue; d: D form.

Columns and labels:
human SSTR-1 = human SSTR-1 (Homo sapiens, UniProt P30872); test: Somatostatin receptor binding assay, hSSTR-1
Sequence of human SSTR-1 (P30872 whole entry, the tested form may be a part): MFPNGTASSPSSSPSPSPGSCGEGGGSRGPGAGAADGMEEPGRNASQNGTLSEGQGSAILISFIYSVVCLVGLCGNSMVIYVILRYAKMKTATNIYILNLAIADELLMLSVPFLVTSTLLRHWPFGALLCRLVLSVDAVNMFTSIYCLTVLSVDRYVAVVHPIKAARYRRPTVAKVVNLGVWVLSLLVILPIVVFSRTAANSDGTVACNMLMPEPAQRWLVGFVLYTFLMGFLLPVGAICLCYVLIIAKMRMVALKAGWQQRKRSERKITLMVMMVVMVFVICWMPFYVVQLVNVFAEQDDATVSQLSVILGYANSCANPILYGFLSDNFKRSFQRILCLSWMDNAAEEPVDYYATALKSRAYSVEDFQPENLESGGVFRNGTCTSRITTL
From the text: (§1) The human SSTR-1, SSTR-2, SSTR-3, SSTR-4, and SSTR-5 cDNA clones have been described (SSTR-1 and SSTR-2 in Yamada, Y., et al., Proc. Natl. Acad. Sci. USA., 89:251-255 (1992); SSTR-3 in Yamade, et al., Mol. Endocrinol. 6:2136-2142 (1993); and SSTR-4 and SSTR-5 in Yamada, et al., Biochem. Biophys. Res. Commun. 195:844-852 (1993)) and are also available from American Type Culture Collection (ATCC, Rockville, Md.) (ATCC Nos. 79044 (SSTR-1), 79046 (SSTR-2), and 79048 (SSTR-3)). […] Restriction endonucleases are available from New England Biolabs (Beverly, Mass.). This cDNA fragment was inserted into the mammalian expression vector, pCMV (Russell, D., et al., J. Biol. Chem., 264:8222-8229 (1989)), using standard molecular biology techniques (see e.g., Maniatis, T., et al., Molecular Cloning--A Laboratory Manual, Cold Spring Harbor Laboratory, 1982) to produce the expression plasmid, pCMV-human SSTR-1 through pCMV-human SSTR-5. Other mammalian expression vectors include pcDNA1/Amp (Invitrogen, Sandlesy, Calif.). The expression plasmids were introduced into the suitable bacterial host, E. Coli HB101 (Stratagene, La Jolla, Calif.) and plasmid DNAs, for transfection, were prepared on Cesium Chloride gradients.
(§2) CHO-K1 (ovary, Chinese hamster) cells were obtained from ATCC (ATCC No. CCL 61). […]

human SSTR-2 = human SSTR-2 (Homo sapiens, UniProt P30874); test: Somatostatin receptor binding assay, hSSTR-2
Sequence of human SSTR-2 (P30874 whole entry): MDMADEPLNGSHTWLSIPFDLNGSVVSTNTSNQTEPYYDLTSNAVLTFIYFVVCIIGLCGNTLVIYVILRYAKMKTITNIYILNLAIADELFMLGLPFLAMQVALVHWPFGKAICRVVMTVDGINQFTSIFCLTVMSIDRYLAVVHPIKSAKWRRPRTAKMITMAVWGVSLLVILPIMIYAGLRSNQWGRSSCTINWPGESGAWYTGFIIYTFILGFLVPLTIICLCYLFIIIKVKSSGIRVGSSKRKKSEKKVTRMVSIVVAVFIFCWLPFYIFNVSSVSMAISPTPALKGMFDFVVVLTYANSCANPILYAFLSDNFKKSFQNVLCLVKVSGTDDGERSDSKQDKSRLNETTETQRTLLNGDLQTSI
From the text: as §1, §2

human SSTR-3 = human SSTR-3 (Homo sapiens, UniProt P32745); test: Somatostatin receptor binding assay, hSSTR-3
Sequence of human SSTR-3 (P32745 whole entry): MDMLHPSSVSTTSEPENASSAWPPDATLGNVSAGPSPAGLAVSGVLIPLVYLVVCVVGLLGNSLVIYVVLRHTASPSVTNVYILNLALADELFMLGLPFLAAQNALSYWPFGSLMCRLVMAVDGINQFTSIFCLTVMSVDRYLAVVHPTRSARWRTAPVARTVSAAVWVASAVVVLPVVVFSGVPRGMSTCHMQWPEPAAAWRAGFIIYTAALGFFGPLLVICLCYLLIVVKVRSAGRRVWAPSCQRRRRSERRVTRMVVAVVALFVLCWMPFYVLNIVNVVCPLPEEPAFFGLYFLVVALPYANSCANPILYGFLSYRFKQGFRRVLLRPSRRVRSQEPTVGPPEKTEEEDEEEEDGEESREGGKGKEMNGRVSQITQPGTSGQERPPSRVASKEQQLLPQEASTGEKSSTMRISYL
From the text: as §1, §2

human SSTR-4 = human SSTR-4 (Homo sapiens, UniProt P31391); test: Somatostatin receptor binding assay, hSSTR-4
Sequence of human SSTR-4 (P31391 whole entry): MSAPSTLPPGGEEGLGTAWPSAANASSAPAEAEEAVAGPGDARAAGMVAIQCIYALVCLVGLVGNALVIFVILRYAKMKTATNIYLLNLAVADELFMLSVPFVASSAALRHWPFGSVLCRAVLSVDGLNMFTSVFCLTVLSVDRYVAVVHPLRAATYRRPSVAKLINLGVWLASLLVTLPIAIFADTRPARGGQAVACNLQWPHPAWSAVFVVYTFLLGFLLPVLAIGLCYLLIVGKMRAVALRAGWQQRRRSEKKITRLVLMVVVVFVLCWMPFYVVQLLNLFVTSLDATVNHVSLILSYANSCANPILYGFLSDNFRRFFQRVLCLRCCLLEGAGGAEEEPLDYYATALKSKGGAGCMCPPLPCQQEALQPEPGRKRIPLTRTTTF
From the text: as §1, §2

human SSTR-5 = human SSTR-5 (Homo sapiens, UniProt P35346); test: Somatostatin receptor binding assay, hSSTR-5
Sequence of human SSTR-5 (P35346 whole entry): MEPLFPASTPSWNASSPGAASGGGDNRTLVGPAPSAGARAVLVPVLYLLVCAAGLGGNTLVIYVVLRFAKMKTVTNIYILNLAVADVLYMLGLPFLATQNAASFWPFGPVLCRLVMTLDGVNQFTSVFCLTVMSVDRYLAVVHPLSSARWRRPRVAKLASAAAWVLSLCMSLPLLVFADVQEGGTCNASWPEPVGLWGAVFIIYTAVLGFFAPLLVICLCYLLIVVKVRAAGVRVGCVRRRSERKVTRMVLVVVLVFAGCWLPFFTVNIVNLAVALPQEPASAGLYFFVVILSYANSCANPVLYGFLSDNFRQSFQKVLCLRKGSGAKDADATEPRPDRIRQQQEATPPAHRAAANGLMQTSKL
From the text: as §1, §2

Row | SMILES | Ki (human SSTR-1) [nM] | Ki (human SSTR-2) [nM] | Ki (human SSTR-3) [nM] | Ki (human SSTR-4) [nM] | Ki (human SSTR-5) [nM] | Ki (human SSTR-5; read-out: Ki hSSTR-5) [nM]
1 | C[C@@H](O)[C@H](NC(=O)[C@H](Cc1ccccc1)NC(=O)[C@@H](NC(=O)[C@H](CCCCN)NC(=O)[C@@H](Cc1c[nH]c2ccccc12)NC(=O)[C@H](Cc1ccccc1)NC(=O)[C@H](Cc1ccccc1)NC(=O)[C@H](N)Cc1ccccc1)[C@@H](C)O)C(N)=O [BIM-23052, H-D-Phe-Phe-Phe-D-Trp-Lys-Thr-Phe-Thr-NH2] (H-[dF]FF[dW]KTFT-NH2) | 97.6 | 5.77 | 5.59 | 126 | 1.23 | –
2 | C[C@@H](O)[C@@H]1NC(=O)[C@H](CCCCN)NC(=O)[C@@H](Cc2c[nH]c3ccccc23)NC(=O)[C@H](Cc2ccccc2)NC(=O)[C@H](Cc2ccccc2)NC(=O)[C@@H](N)CSSC[C@@H](C(N)=O)NC(=O)[C@H](Cc2ccccc2)NC1=O [BM-23268, H-Cys-Phe-Phe-D-Trp-Lys-Thr-Phe-Cys-NH2] (H-CFF[dW]KTFC-NH2; disulfide 1-8) | 12.3 | 6.84 | 61.6 | – | – | 0.376
